Legend:
[1] = 3%-cream applied on the skin, after 24 hours; cited from earlier work
[2] = tested on: C2C12 myoblasts; test: Gap closure of damaged monolayers with low/medium-level stretching; format: cell-based, Mouse
Experimental: (§1) Mouse myoblast or fibroblast cells (1×10^6 per well, previously grown media containing 1 mM NaPy) were seeded 1-3 days prior to performing a stretching experiment in a six-well (31-mm diameter) culture plate with an elastic, 0.51-mm thick, transparent and collagen-coated substrata bottom (Flexcell Inc., Burlington, N.C.). Cells were grown on the stretchable-bottom plate until a confluent monolayer had formed. The plates with cells were then mounted onto our stretching apparatus and radial stretching to tensile strains of 3% or 6% or 0% (no-stretch) control was applied Immediately following stretching, compressive deformation damage was induced in each monolayer using a rigid optic fiber (˜350 μm diameter). Cells at the center of each well were crushed, inducing an approximately circular cell-damage area with varying sizes (0.05-0.5 mm^2). Media was replaced to remove any cell debris and the fresh media contained varying concentrations of sodium pyruvate: 0, 1 or 5 mM. Then the time-dependent gap closure was evaluated to reveal kinematic features The stretching apparatus was mounted in the motorized microscope stage to facilitate for time-lapse imaging of progression of the gap closure. Cell viability throughout the prolonged experiments was ensured by maintaining 37° C., 5% CO2 and high humidity, using an incubator that enclosed the microscope (Life Imaging Services, Basel, Switzerland).
(§2) Time-lapse imaging was performed using a fully motorized, inverted fluorescence microscope (Olympus IX81, Tokyo, Japan) with a custom MATLAB 2012b (The MathWorks, Natick, Mass.) graphical user interface (GUI) module to automatically control lens positioning and collect images of the gap every 10 minutes for up to 24 hours. Images were taken using an XR Mega-10AWCL camera (Stanford Photonics Inc., Palo Alto, Calif.), using a 10×/NA 0.3 long working-distance, air immersion objective lens at a final magnification of 646.8 nm/pixel. A custom algorithm in MATLAB 2012b was used to automatically analyze the time-progression images of the gap area closure and quantify cell migration and gap closure progression, as described in Topman et al. (Micron 51:9-12; 2012); Toume et al. Int Wound J 14:698-703; 2017). Briefly, the time-dependent area was fit to a Richard's function, which is an asymmetric sigmoid, by minimizing the mean squared error. Using the fitted curve, the maximum migration rate was calculated, which is the maximal slope of the area vs. time, Richards fit. The normalized maximum migration rate was obtained by dividing the maximum migration rate by the initial gap area. In addition, the time for 90% gap area closure, which is indicative of the end of the en masse cell migration regime was obtained (Topman et al. 2012; Med Eng Phys 34:225-232).
(§3) Results of the different conditions were compared using a two-way analysis of variance (ANOVA) for unequal length samples; Statistical analysis was performed in MATLAB. The interaction parameter was found significant, thus the interactions between the sodium pyruvate concentration and the stretching level and were important; in cases where only the interaction parameter the interaction is considered ‘simple’ by typical definitions in statistical analysis. A one-way ANOVA was also performed in conjunction with post-hoc Tukey-Kramer tests to identify statistically significant differences levels of sodium pyruvate for each level of stretching and vice versa. A P-value lower than 0.05 was considered significant.
(§4) Both tested cell types, C2C12 myoblasts and NIH3T3 fibroblasts were cultured in media with 1 mM sodium pyruvate up to the time of infliction of compressive deformation damage (micro-gap formation) and concurrent application of radial stretching. […]

[3] = tested on: NIH3T3 fibroblasts; test: as above; format: cell-based, Mouse; settings: 0% stretching, post-injury NaPy 0, 1 or 5 mM
Experimental: as §1, §2, §3, §4

[4] = group given NaPy eye drops, 2 hours prior to extraction; control 0.145+/−0.06 mM; cited from earlier work
[5] = cited from earlier work
[6] = tested on: C2C12 myoblasts; test: Membrane permeability (FITC-labeled 4 kDa dextran uptake, FACS) under damage-level 12% strain; format: cell-based, murine
Experimental: (§5) For each experiment, 300,000 cells were cultured 24 hours in parallel on 2-4 bioflexcell collagen-coated 6-well plates (Flexcell Inc., North Carolina). On the day of the experiment the cell growth media (with 0/1 mM NaPy) was replaced with media supplemented with different NaPy concentrations (0, 1 or 5 mM) and cells were incubated for 4 hours; this constitutes the pre-treatment of the cells. A four-hour pre-treatment was chosen as that is a clinically relevant time-scale during preparation e.g. before planned surgical procedures.
(§6) Each 6-well plate contained two wells with each of the three NaPy pre-treatment concentrations. After 4 hours, all but one of the bioflexcell plates were simultaneously subjected to damaging-level, sustained strain-loads of 12% radial stretching for 3 hours and one plate in each experiment was not stretched for control. […] Next, cells were centrifuged (900 rpm for 5 min) and resuspended in 0.5 ml of PBS within 12×75 mm polystyrene test tubes for use with fluorescence activated cell sorting (FACS).
(§7) Permeability of the plasma membrane was quantified by cell uptake of the small (4 kDa) FITC-labeled Dextran. Fluorescence intensity changes due to internalized FITC-labeled Dextran and auto fluorescence of over 20,000 cells per sample was measured using a fluorescence-activated cell sorting (FACS) Calibur system (BD Biosciences, New Jersey) with the fluorescence channel. […] For each pre-treatment (and growth media) condition 4 measurements were collected: strain-loaded cells with or without added dextran, and unstrained control cells with or without dextran; samples without dextran provide a control for native cell auto-fluorescence (AF). The percent change in dextran uptake is calculated by the mean value of the strained sample relative to the unstrained samples, after subtracting the auto-fluorescence for each. […]

[7] = tested on: NIH3T3 fibroblasts; test: as above; format: cell-based, murine; settings: increasing concentrations of NaPy pre-treatment (0, 1, 5 mM, 4 hours), 12% strain 3 hrs
Experimental: as §5, §6, §7

[8] = 1 mM NaPy with 3% stretching vs no NaPy
[9] = 5 mM NaPy with 3% stretching vs no NaPy
[10] = adopted from the literature, model input

Compound | transdermal flux [1] | gap closure rate ([2]; 0% stretching, post-injury NaPy 0, 1 or 5 mM) | normalized gap-closure rate ([2]; 1 mM NaPy post-injury with 3% stretching (16.3 without NaPy)) [% area/hr] | time to reach 90% gap coverage ([2]; 1 mM NaPy with 3% stretching (9.2 hrs without NaPy)) [h] | decrease of time to reach 90% gap coverage [2, 8] [%] | increase of normalized gap-closure rate [2, 8] [%] | normalized gap-closure rate ([2]; 5 mM NaPy post-injury with 3% stretching (16.3 without NaPy)) [% area/hr] | time to reach 90% gap coverage ([2]; 5 mM NaPy with 3% stretching (9.2 hrs without NaPy)) [h] | decrease of time to reach 90% gap coverage [2, 9] [%] | increase of normalized gap-closure rate [2, 9] [%] | gap closure ([2]; 3% strain combined with post-injury exogenous NaPy supplement (1 or 5 mM)) | gap closure rate [3] | level of NaPy in corneal tissue [4] [µM] | Solubility in the aqueous phase of the dressing and tissues [5, 10] [mg/mL] | diffusivity in the aqueous phase of the dressing and tissues [5, 10] [mm^2/s] | free diffusivity in the aqueous phase of the dressing and tissues [5, 10] [mm^2/s] | log Ko/W ([5]; input of the Kp equation) | cell damage-induced uptake of dextran relative to control ([6]; NaPy pre-treatment 0, 1, 5 mM for 4 hours, then 12% sustained stretch 3 hrs) | strain-damage induced membrane poration ([6]; cultured in media containing 1 mM NaPy, pre-treated with 5 mM NaPy, 12% strain 3 hrs) | damage to membrane integrity (uptake relative to control) [7]
O=C(O)Cc1ccccc1Nc1c(Cl)cccc1Cl [Diclofenac Sodium] | 0.321-0.943 nmol/cm^2·h | – | – | – | – | – | – | – | – | – | – | – | – | – | – | – | – | – | – | –
CC(=O)C(=O)[O-].[Na+] [NaPy, sodium pyruvate] | – | unaffected | 20.5 | 7.3 | 21 | 26 | 23.7 | 6.3 | 31 | 46 | successfully accelerated gap closure in a concentration dependent and statistically significant manner | unaffected | 350 to 525 | 100 | 0.0005 | 0.001 | −5.05 | a reduction was observed in the cell damage-induced uptake of dextran relative to control that is proportional to the NaPy concentration | a reduction was observed in the strain-damage induced membrane poration to insignificant levels | reduced damage to membrane integrity
